Consider 2 compounds from patent US20190002492A1, “DERIVATIVES OF ALLOPR[…] OF EPIALLOPR[…] USES THEREOF FOR TREATING A NEUROPATHOLOGICAL CONDITION” (UNIVERSITE DE STRASBOURG, priority 2011, published 2019).

The subject of this test is SH-SY5Y human neuroblastomas. As to the kind of experiment: MTT assay of cell viability and density: effect on cell proliferation. The class given is cell-based. On the set-up: key to Effect on cell proliferation (neural proliferative effect): −: no effect; +: low effect; ++: high effect; +++: very high effect. Particulars: SH-SY5Y cultures. As for the experimental part: The cellular model used to carry out the in vitro experiments is a line of human neuroblastomas called line SH-SY5Y.
The human neuroblastoma is a cultivated at 37° C. in a humidity saturated atmosphere, under 5% CO2 in a culture medium formed by DMEM with an added 10% (v/v) fetal calf serum, 5% (v/v) horse serum, 2 mM glutamax and 1% (v/v) of the penicillin/streptomycin mixture.
The cellular viability and the density (or number of SH-SY5Y cells/cm^2) were determined using the MTT reduction assay. The MTT technique is a colorimetric test that measures the reduction of the tetrazolium salt (3-[4,5-dimethylthiazol-2-yl]-2,5-diphenyl tetrazolium bromide) in formazan by the succinate dehydrogenase present in the mitochondria of the living cells. The formazan forms blue crystals. Thus, after solubilization of the crystals, the measurement of the absorbance at 595 nm makes it possible to obtain absorbency values directly proportional to the number of viable cells and the cell density in the culture boxes.
The effects of derivatives BR053, BR338, BR297 and BR351 on cell proliferation were evaluated by comparing the number of viable cells and the cell density in the control culture boxes, treated only with the culture medium described in paragraph A1 above, and the culture boxes exposed to the culture medium with the added BR053, BR338, BR297 or BR351 derivatives.

Structures are written as SMILES.

Take `C=CCO[C@H]1CC[C@]2(C)C3CC[C@@]4(C)C(CC[C@@H]4C(C)=O)C3CC[C@H]2C1` (stereo partly shown) [BR297]: the “Effect on cell proliferation (neural proliferative effect)” value is “−” and the “Effect on the proliferation of human neuroblastomas (in words)” value is recorded as “no effect”.
Consider `CC(=O)[C@H]1CCC2C3CC[C@H]4C[C@@H](O)CC[C@]4(C)C3CC(=O)[C@@]21C` (stereo partly shown) [BR053], for which the “Effect on cell proliferation (neural proliferative effect)” value was “+” and the “Effect on the proliferation of human neuroblastomas (in words)” value is “low effectiveness”.
